Activity calls are given as the source filed them.
Key:
[1] = molecular target: Serine/threonine-protein phosphatase PP1-alpha catalytic subunit (Homo sapiens, UniProt P62136); assay: inhibition of protein phosphatase 1 activity – biochemical, fluorescence, dose response (AID 2394)
[2] = molecular target: Serine/threonine-protein phosphatase (Homo sapiens, UniProt Q9BPW0); assay: inhibition of protein phosphatase 5 activity – biochemical, fluorescence, dose response (AID 2395)
[3] = molecular target: Cytochrome P450 2C19 (Homo sapiens, UniProt P33261); assay: qHTS Assay for Inhibitors and Substrates of Cytochrome P450 2C19. [Related pubchem assays: 410 ]; type: ADME; settings: read-out: Potency
Chain of Cytochrome P450 2C19 (P33261 whole entry): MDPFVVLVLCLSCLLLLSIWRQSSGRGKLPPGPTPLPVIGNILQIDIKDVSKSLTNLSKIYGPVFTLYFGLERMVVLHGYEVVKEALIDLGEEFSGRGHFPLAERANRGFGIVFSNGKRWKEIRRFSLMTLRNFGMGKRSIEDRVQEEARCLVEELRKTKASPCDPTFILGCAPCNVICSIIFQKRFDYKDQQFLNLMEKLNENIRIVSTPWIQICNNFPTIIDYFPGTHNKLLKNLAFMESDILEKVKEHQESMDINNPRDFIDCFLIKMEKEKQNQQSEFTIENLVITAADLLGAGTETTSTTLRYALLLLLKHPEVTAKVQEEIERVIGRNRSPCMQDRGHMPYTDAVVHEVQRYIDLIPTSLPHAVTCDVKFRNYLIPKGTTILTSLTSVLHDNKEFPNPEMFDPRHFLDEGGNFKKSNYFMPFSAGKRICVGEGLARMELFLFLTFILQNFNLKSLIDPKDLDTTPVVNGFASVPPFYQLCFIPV

[4] = molecular target: Cytochrome P450 3A4 (Homo sapiens, UniProt P08684); settings: Potency;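 further: confirmatory qHTS run detecting inhibitors and substrates of CYP3A4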
Chain of Cytochrome P450 3A4 (P08684 whole entry): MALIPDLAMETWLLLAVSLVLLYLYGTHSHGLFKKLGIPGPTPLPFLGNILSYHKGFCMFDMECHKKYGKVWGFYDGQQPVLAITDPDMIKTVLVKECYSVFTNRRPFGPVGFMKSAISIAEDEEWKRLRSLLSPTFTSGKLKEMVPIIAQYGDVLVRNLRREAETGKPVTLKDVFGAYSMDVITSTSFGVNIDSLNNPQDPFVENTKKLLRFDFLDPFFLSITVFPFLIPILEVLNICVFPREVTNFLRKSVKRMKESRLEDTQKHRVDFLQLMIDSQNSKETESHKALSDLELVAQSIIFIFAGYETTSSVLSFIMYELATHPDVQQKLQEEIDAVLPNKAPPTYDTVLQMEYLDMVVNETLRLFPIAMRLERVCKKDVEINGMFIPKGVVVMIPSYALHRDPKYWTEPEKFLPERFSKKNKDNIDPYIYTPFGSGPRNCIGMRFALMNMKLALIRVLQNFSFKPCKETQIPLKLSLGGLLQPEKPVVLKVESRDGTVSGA

[5] = molecular target: Glyceraldehyde-3-phosphate dehydrogenase (Homo sapiens, UniProt P04406)
Chain of Glyceraldehyde-3-phosphate dehydrogenase (P04406 whole entry): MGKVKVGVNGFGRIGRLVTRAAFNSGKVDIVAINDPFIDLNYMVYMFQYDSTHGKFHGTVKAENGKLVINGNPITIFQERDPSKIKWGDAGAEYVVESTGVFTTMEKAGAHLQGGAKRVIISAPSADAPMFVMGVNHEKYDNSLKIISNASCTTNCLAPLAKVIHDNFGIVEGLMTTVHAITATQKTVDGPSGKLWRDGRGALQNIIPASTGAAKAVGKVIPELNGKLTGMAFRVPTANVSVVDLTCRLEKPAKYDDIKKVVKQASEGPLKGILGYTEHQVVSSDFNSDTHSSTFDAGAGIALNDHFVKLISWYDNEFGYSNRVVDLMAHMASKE

[6] = molecular target: T1, Bcl-2-related protein A1 (Mus musculus, UniProt Q07440); assay: small-molecule antagonists of Bfl-1/BH3 interaction – biochemical, TR-FRET, mouse Bfl-1, confirmation (AID 621);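 further: TR-FRET binding of GST-Bfl-1 to FITC-labelled Bid peptide via terbium antibody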
T1 sequence (Q07440 whole entry): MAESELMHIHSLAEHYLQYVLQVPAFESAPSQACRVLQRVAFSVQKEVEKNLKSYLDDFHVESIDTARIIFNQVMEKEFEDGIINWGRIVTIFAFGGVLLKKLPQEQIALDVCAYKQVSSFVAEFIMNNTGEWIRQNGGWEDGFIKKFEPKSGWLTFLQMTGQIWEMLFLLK

[7] = molecular target: T1, Bcl-2-related protein A1; assay: Bfl-1 binding inhibitors, SAR follow-up, biochemical, fluorescence polarization (AID 1070)
[8] = system: Danio rerio; assay: In Vivo Angiogenesis Dose-Response Confirmation. [Related pubchem assays: 732 (Assay preceding this confirmatory assay.)]; type: functional, organism-based
[9] = molecular target: Voltage-gated inwardly rectifying potassium channel KCNH2 (Homo sapiens, UniProt Q12809); settings: Potency;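 further: confirmatory quantitative high-throughput screen measuring inhibition of hERG channel activity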
Chain of Voltage-gated inwardly rectifying potassium channel KCNH2 (Q12809 whole entry): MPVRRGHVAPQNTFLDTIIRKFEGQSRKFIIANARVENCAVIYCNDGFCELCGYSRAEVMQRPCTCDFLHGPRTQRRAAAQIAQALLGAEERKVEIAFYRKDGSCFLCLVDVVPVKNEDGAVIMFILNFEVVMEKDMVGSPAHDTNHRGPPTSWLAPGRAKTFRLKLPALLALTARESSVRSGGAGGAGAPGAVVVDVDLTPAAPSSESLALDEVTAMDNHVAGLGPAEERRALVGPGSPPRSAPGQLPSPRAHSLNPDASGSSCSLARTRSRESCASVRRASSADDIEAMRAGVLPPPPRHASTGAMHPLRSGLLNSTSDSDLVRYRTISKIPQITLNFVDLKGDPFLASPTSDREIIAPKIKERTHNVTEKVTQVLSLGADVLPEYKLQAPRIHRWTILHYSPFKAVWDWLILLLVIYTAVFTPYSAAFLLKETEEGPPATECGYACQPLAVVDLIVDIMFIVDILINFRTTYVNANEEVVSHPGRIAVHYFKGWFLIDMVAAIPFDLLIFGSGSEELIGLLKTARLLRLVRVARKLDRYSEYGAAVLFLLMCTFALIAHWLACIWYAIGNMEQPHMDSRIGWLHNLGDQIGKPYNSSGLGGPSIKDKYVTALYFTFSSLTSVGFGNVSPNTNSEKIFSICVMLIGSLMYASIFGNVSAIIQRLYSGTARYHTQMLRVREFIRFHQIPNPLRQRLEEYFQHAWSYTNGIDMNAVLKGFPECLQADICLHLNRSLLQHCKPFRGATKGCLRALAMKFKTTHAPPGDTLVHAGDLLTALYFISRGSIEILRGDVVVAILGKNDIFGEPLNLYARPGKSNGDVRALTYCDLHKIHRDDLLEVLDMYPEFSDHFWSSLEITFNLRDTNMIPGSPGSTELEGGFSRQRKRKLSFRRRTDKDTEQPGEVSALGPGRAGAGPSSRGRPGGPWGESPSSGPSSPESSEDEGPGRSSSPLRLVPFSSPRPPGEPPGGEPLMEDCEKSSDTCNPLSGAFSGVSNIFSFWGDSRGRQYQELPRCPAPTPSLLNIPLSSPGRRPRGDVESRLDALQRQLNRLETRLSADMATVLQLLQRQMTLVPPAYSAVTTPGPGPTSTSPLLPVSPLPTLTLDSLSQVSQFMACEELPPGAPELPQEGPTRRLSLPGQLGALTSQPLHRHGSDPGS

[10] = molecular target: T2, Estrogen receptor beta (Homo sapiens, UniProt Q92731);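 further: recombinant ER-beta bound to coactivator SRC1 peptide in presence of estradiol agonist; inhibitors block coactivator peptide binding and lower the FRET signal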
T2 sequence (Q92731 whole entry): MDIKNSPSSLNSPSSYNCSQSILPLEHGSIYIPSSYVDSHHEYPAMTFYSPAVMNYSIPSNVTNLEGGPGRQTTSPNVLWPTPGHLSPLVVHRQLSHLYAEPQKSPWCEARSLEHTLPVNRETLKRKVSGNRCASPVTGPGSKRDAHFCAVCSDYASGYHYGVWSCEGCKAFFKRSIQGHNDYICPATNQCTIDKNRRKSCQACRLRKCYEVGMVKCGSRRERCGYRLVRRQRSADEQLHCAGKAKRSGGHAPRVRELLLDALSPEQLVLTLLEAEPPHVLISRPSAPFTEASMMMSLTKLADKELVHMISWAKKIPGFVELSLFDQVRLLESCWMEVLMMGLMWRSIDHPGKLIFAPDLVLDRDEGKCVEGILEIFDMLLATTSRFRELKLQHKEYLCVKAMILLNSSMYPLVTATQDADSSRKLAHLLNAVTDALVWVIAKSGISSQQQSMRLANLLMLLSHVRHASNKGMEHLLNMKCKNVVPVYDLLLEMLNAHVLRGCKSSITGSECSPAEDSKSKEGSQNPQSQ

[11] = molecular target: T2, Estrogen receptor beta; assay: blockers of SRC-3 recruitment to ERβ – biochemical, ELISA, streptavidin-HRP readout, orthogonal assay, confirmation (AID 1060)

Chain of Serine/threonine-protein phosphatase (Q9BPW0 whole entry): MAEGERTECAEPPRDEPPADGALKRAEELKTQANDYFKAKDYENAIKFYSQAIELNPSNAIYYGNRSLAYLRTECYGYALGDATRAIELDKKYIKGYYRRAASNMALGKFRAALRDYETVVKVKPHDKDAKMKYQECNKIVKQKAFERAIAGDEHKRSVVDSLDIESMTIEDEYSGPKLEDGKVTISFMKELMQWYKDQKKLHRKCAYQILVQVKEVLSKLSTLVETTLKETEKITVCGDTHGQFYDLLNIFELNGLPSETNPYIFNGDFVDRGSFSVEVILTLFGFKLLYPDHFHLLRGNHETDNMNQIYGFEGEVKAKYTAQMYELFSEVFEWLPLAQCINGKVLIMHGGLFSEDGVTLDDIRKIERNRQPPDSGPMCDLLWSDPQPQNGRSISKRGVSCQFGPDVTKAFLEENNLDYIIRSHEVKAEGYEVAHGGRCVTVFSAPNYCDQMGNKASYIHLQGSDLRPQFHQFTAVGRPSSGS
Chain of Serine/threonine-protein phosphatase PP1-alpha catalytic subunit (P62136 whole entry): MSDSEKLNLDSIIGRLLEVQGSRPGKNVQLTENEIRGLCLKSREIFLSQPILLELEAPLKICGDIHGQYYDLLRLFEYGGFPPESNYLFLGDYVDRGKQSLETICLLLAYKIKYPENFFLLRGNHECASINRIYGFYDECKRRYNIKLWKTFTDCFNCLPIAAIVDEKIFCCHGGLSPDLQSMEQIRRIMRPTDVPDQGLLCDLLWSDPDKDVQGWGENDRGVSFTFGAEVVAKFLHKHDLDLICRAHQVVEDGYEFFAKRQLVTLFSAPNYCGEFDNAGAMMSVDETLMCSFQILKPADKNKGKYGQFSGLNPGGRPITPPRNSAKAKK

## COC(=O)CCC(=O)OC1(C)C(=O)C=C2C=C(C3CC3)N(CC3CC3)C=C2C1=O (stereo unspecified)
[1]
  IC50: 63.6 µM (not active)
[2]
  IC50: 17 µM (not active)

## COC(=O)NC(c1ccccc1)C(C(=O)OC)C(=O)OC (stereo unspecified)
[3]
  AC50: 5.01 µM (inconclusive)
[4]
  AC50: 3.16 µM (inconclusive)

## O=C1C(Cl)=C(N2CCN(c3ccccc3)CC2)C(=O)N1c1ccc(Cl)c(Cl)c1
[5]
  IC50: > 100 µM (not active)
[6]
  IC50: 4.13 µM (active)
[7]
  IC50: 4.95 µM (active)

## CN(C)c1ccc(/C=C2\C(=O)Nc3ccccc32)cc1
[8]
  IC50: > 100 µM (not active)
[9]
  AC50: 14.1 µM (inconclusive)

## CN1C(=O)CC(C(=O)O)S/C1=N/c1cc(Cl)c(O)c(Cl)c1 (stereo unspecified)
[10]
  IC50: 26.9 µM (active)
[11]
  IC50: > 109 µM (not active)

Reference: ChEMBL document CHEMBL1201862, “PubChem BioAssay data set” (2004)
